Consider ten molecules from PubChem BioAssay (NCI).

“And” between values parts separate entries of the source, which are not always exact repeats. Identical values can stand only once.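 Interpolation was linear, between the two tested concentrations surrounding the appropriate level; five concentrations were tested over 48 hours in 96-well plates. Here, GI50 denotes the concentration required for 50% inhibition of growth. TGI marks complete inhibition of growth.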

Some test systems named below: UO-31 renal; DMS 273 small cell lung; HOP-18 NSCLC; SK-OV-3 ovarian; NCI-H23 lung; U251 CNS; IGROV1 ovarian; CCRF-CEM leukemia; ACHN renal; BT-549 breast.
Common to all, as to experiment: DTP human tumour cell line panel, 48 h

`Nc1cc(=O)[nH]c(SC2=NC(N)CC(O)C2)n1` (configuration not stated): the TGI in the assay on UO-31 renal, in the assay on DMS 273 small cell lung, with HOP-18 NSCLC, in the assay on SK-OV-3 ovarian, with NCI-H23 lung and in the assay on U251 CNS was over 100 µM in each case. For the same molecule, the TGI in the assay on IGROV1 ovarian, in the assay on CCRF-CEM leukemia and with ACHN renal was over 100 µM in each case.
For the molecule `CCCC(O)[C@@H](O)c1ccc2c(c1O)C(=O)c1c(OC)cccc1C2=O` (some centres not stated), the TGI (in general, the concentration at which net growth stops) in the assay with UO-31 renal is 91.2 µM; with DMS 273 small cell lung, over 100 µM; in the assay with HOP-18 NSCLC it was over 100 µM; in the assay with SK-OV-3 ovarian, over 100 µM; in the assay on NCI-H23 lung, over 100 µM; in the assay on U251 CNS, over 100 µM. Besides, the TGI in the assay on IGROV1 ovarian is over 100 µM; in the assay on CCRF-CEM leukemia, 85.7 µM; in the assay with ACHN renal, over 100 µM.
As for `COC(=O)CCC(=O)N1Cc2cc(C)ccc2N(C(=O)CCC(=O)OC)Cc2cc(C)ccc21`, the TGI with UO-31 renal, with DMS 273 small cell lung, with HOP-18 NSCLC, in the assay with SK-OV-3 ovarian, with NCI-H23 lung and with U251 CNS was over 100 µM throughout. Further, the TGI with IGROV1 ovarian, in the assay with CCRF-CEM leukemia and in the assay on ACHN renal was over 100 µM throughout.
As to `CC[C@](C)(O)C(=O)O[C@H]1C(=O)O[C@@H]2C[C@H]3C(C)=CC(=O)[C@@H](O)[C@]3(C)[C@H]3[C@@]4(O)OC[C@]32[C@@H]1[C@@H](C)[C@H]4O`, the GI50 (commonly the concentration giving 50% growth inhibition) with UO-31 renal was 0.662 µM; in the assay with DMS 273 small cell lung it was 0.0127 µM; in the assay with HOP-18 NSCLC, 0.162 µM and 0.359 µM; in the assay with SK-OV-3 ovarian, 1.34 µM; with NCI-H23 lung it was 0.05 µM; in the assay with IGROV1 ovarian, 0.0736 µM. Besides, in the assay with CCRF-CEM leukemia, the GI50 was 0.0897 µM. For the same molecule, the TGI in the assay on UO-31 renal is 3.71 µM and 3.78 µM; with DMS 273 small cell lung it was 0.0425 µM and 0.205 µM; in the assay on HOP-18 NSCLC, 0.977 µM and 3.23 µM; in the assay on SK-OV-3 ovarian it was 13.9 µM and 4.29 µM; in the assay with NCI-H23 lung, 0.532 µM and 0.136 µM; in the assay with U251 CNS, 0.41 µM and 0.121 µM. The TGI with IGROV1 ovarian was 0.544 µM and 0.274 µM; in the assay on ACHN renal, 1.69 µM; in the assay on BT-549 breast, 6.76 µM.
Take `CCOP(=O)(OCC)C1CCCCOC1=O` (configuration not stated): the TGI in the assay on UO-31 renal, in the assay on DMS 273 small cell lung, in the assay with HOP-18 NSCLC, with SK-OV-3 ovarian, in the assay on NCI-H23 lung and with U251 CNS was over 100 µM each time. Also, the TGI in the assay with IGROV1 ovarian, in the assay with CCRF-CEM leukemia and in the assay on ACHN renal was over 100 µM each time.
In the case of `CCC[CH2][Sn]([CH2]CCC)([O]C(C)=O)[O]C(C)=O`, the GI50 with UO-31 renal is 1.72 µM; with DMS 273 small cell lung it was 2.19 µM; with HOP-18 NSCLC, 1.42 µM; with SK-OV-3 ovarian, 1.93 µM; in the assay on NCI-H23 lung it was 1.21 µM; with U251 CNS, 0.888 µM. The figures for the GI50 in the assay on IGROV1 ovarian, with CCRF-CEM leukemia and in the assay on ACHN renal were 1.32 µM, 0.197 µM and 1.44 µM, respectively. Also, the TGI with UO-31 renal is 3.13 µM; in the assay with DMS 273 small cell lung, 7.04 µM; with HOP-18 NSCLC, 2.72 µM; in the assay with SK-OV-3 ovarian it was 3.95 µM; in the assay with NCI-H23 lung it was 2.91 µM; in the assay with U251 CNS it was 2.09 µM. For the same molecule, the concentration for total growth inhibition (TGI) in the assay on IGROV1 ovarian came to 1.96 µM; with CCRF-CEM leukemia, 0.832 µM; in the assay with ACHN renal, 2.75 µM.
On to `C=C1C(=O)OC2CC3(C)C=CC(=O)C(=C)C3CC12` (configuration not stated), for which the TGI in the assay on UO-31 renal was 3.13 µM; in the assay on DMS 273 small cell lung, 2.64 µM; with HOP-18 NSCLC it was 8.77 µM; in the assay with SK-OV-3 ovarian, 42.1 µM; with NCI-H23 lung it was 3.48 µM; in the assay with U251 CNS, 13.5 µM. Besides, the TGI in the assay on IGROV1 ovarian stood at 5.04 µM; in the assay with ACHN renal it was 3.35 µM.
Turning to `COc1ccccc1[N-]C(C1=C([O-])c2ccccc2C1=O)c1ccccc1.COc1ccccc1[N-]C(C1=C([O-])c2ccccc2C1=O)c1ccccc1.[Cu+2]` (configuration not stated), the GI50 in the assay on UO-31 renal is 12 µM; in the assay with DMS 273 small cell lung, 4.59 µM; in the assay with HOP-18 NSCLC, 18.3 µM; with SK-OV-3 ovarian, 2.09 µM; with NCI-H23 lung it was 7.17 µM; with U251 CNS, 2.88 µM. Further, the GI50 in the assay with IGROV1 ovarian is 9.3 µM; in the assay on CCRF-CEM leukemia, 3.49 µM; with ACHN renal, 10.9 µM. Further, the TGI is 75.2 µM in the assay with UO-31 renal; over 100 µM in the assay on DMS 273 small cell lung; 95.1 µM in the assay with HOP-18 NSCLC; 6.57 µM in the assay with SK-OV-3 ovarian; 61.2 µM with NCI-H23 lung; 8.33 µM with U251 CNS. The figures for the TGI in the assay on IGROV1 ovarian, with CCRF-CEM leukemia and in the assay on ACHN renal were over 100 µM, over 100 µM and 74.7 µM, respectively.
For `O=C(NCCCCCCNC(=O)c1cccc2ccccc12)c1cccc2ccccc12`, the TGI is 66.3 µM with UO-31 renal; 3.46 µM in the assay with DMS 273 small cell lung; 76.8 µM with HOP-18 NSCLC; 56.9 µM in the assay with SK-OV-3 ovarian; over 100 µM in the assay on NCI-H23 lung; 53.8 µM in the assay with U251 CNS. For the same molecule, the TGI in the assay with IGROV1 ovarian, in the assay with CCRF-CEM leukemia and in the assay on ACHN renal was over 100 µM each time.
As for `O=C(CC1Sc2ccccc2NC1=O)Nc1cc(Cl)ccc1Cl` (configuration not stated), the TGI in the assay on UO-31 renal, in the assay with DMS 273 small cell lung, with NCI-H23 lung, in the assay on U251 CNS, with IGROV1 ovarian and in the assay with CCRF-CEM leukemia was over 100 µM in each case. The total growth inhibition concentration (TGI) with ACHN renal was over 100 µM.
